Measurements reported in US10131652B2, “Pyrimidinyloxy benzene derivatives as herbicides” (E. I. DU PONT DE NEMOURS AND COMPANY, priority 2014, dated 2018).
Like-named read-outs stand apart in the source and are kept apart here.

Experiments:
Type in all cases: in vivo
[1] = test system: large (Lg) crabgrass (Digitaria sanguinalis); experiment: Test F pre-/postemergence plant response; conditions: Digitaria sanguinalis, pre-emergence, scale 0 to 100, read-out: Plant response rating, Crabgrass, Large; for pest or weed control at 31 g/ha: 31 g ai/ha Preemergence; for pest or weed control at 62 g/ha: 62 g ai/ha Preemergence
Description: (§1) Seeds of plant species selected from corn (Zea mays), soybean (Glycine max), velvetleaf (Abutilon theophrasti), lambsquarters (Chenopodium album), wild poinsettia (Euphorbia heterophylla), palmer pigweed (Amaranthus palmeri), waterhemp (common waterhemp, Amaranthus rudis), surinam grass (Brachiaria decumbens), large (Lg) crabgrass (Digitaria sanguinalis), Brazilian crabgrass (Digitaria horizontalis), fall panicum (Panicum dichotomiflorum), giant foxtail (Setaria faberii), green foxtail (Setaria viridis), goosegrass (Eleusine indica), johnsongrass (Sorghum halepense), ragweed (common ragweed, Ambrosia elatior), barnyardgrass (Echinochloa crus-galli), sandbur (southern sandbur, Cenchrus echinatus), arrowleaf sida (Sida rhombifolia), Italian ryegrass (Lolium multiflorum), dayflower (Virginia (VA) dayflower, Commelina virginica), field bindweed (Convolvulus arvensis), cocklebur (common cocklebur, Xanthium strumarium), momingglory (Ipomoea coccinea), nightshade (eastern black nightshade, Solanum ptycanthum), kochia (Kochia scoparia), yellow nutsedge (Cyperus esculentus), and hairy beggarticks (Bidens pilosa), were planted into a silt loam soil and treated preemergence with test chemicals formulated in a non-phytotoxic solvent mixture which included a surfactant.
(§2) At the same time, plants from these crop and weed species and also waterhemp_RES1, (ALS & Triazine resistant common waterhemp, Amaranthus rudis), and waterhemp_RES2, (ALS & HPPD resistant common waterhemp, Amaranthus rudis) were treated with postemergence applications of test chemicals formulated in the same manner. Plants ranged in height from 2 to 18 cm for postemergence treatments (1- to 4-leaf stage).
(§3) Treated plants and controls were maintained in a greenhouse for 14 to 21 days, after which time all species were compared to controls and visually evaluated. Plant response ratings, summarized in Table F, are based on a scale of 0 to 100 where 0 is no effect and 100 is complete control. A dash (-) response means no test result.

[2] = test system: kochia (Kochia scoparia); experiment: Test F pre-/postemergence plant response; conditions: Bassia scoparia, scale 0 to 100, read-out: Plant response rating, Kochia; for pest or weed control at 16 g/ha: 16 g ai/ha; for pest or weed control at 31 g/ha: 31 g ai/ha; for pest or weed control at 125 g/ha: 125 g ai/ha
Description: as §1, §2, §3

[3] = test system: fall panicum (Panicum dichotomiflorum); experiment: Test F pre-/postemergence plant response; conditions: Panicum dichotomiflorum, scale 0 to 100, read-out: Plant response rating, Panicum, Fall
Description: as §1, §2, §3

[4] = test system: morningglory (Ipomoea coccinea); experiment: Test F pre-/postemergence plant response; conditions: Ipomoea, pre-emergence, scale 0 to 100, read-out: Plant response rating, Morningglory; for pest or weed control at 31 g/ha: 31 g ai/ha Preemergence; for pest or weed control at 62 g/ha: Preemergence
Description: as §1, §2, §3

[5] = test system: nightshade (eastern black nightshade, Solanum ptycanthum); experiment: Test F pre-/postemergence plant response; conditions: Solanum, pre-emergence, scale 0 to 100, read-out: Plant response rating, Nightshade; for pest or weed control at 31 g/ha: 31 g ai/ha Preemergence; for pest or weed control at 62 g/ha: Preemergence
Description: as §1, §2, §3

[6] = test system: giant foxtail (Setaria faberii); experiment: Test F pre-/postemergence plant response; conditions: Setaria faberi, pre-emergence, scale 0 to 100, read-out: Plant response rating, Foxtail, Giant; for pest or weed control at 31 g/ha: 31 g ai/ha Preemergence; for pest or weed control at 62 g/ha: 62 g ai/ha Preemergence
Description: as §1, §2, §3

[7] = test system: field bindweed (Convolvulus arvensis); experiment: Test F pre-/postemergence plant response; conditions: Convolvulus arvensis, scale 0 to 100, read-out: Plant response rating, Field Bindweed
Description: as §1, §2, §3

[8] = test system: waterhemp_RES2 (ALS & HPPD resistant common waterhemp, Amaranthus rudis); experiment: Test F postemergence plant response; conditions: scale 0 to 100
Experimental: as §2, §3

[9] = test system: waterhemp_RES1 (ALS & Triazine resistant common waterhemp, Amaranthus rudis); experiment: Test F postemergence plant response; conditions: scale 0 to 100
Experimental: as §2, §3

[10] = post-emergence, 8 g ai/ha Postemergence
[11] = post-emergence, 62 g ai/ha, Postemergence
[12] = pre-emergence, 8 g ai/ha Preemergence
[13] = post-emergence, 16 g ai/ha Postemergence
[14] = post-emergence, 31 g ai/ha Postemergence
[15] = post-emergence, 62 g ai/ha Postemergence
[16] = post-emergence, 125 g ai/ha Postemergence
[17] = pre-emergence, 16 g ai/ha Preemergence
[18] = pre-emergence, 31 g ai/ha Preemergence
[19] = pre-emergence, 125 g ai/ha Preemergence
[20] = pre-emergence, 62 g ai/ha Preemergence

Question: For FC(F)c1cc(-c2ccccc2Oc2ncc(Cl)cn2)on1 [Compound 53, 5-chloro-2-[2-[3-(difluoromethyl)-5-isoxazolyl]phenoxy]pyrimidine], which pest or weed control at 8 g/ha ([1]; 8 g ai/ha Preemergence) is on record?
Answer: 0%

Question: And the pest or weed control at 16 g/ha ([1]; 16 g ai/ha Preemergence)?
Answer: 0%

Question: What about the pest or weed control at 31 g/ha [1] of the same molecule?
Answer: 15%

Question: What about the pest or weed control at 62 g/ha [1] of the same molecule?
Answer: 80%

Question: What about the pest or weed control at 125 g/ha ([1]; 125 g ai/ha Preemergence) of the same molecule?
Answer: 98%

Question: What about the pest or weed control at 8 g/ha [2, 10] of the same molecule?
Answer: 50%

Question: And the pest or weed control at 16 g/ha ([2]; post-emergence, Postemergence)?
Answer: 60%

Question: And the pest or weed control at 31 g/ha ([2]; post-emergence, Postemergence)?
Answer: 80%

Question: What about the pest or weed control at 62 g/ha [2, 11] of the same molecule?
Answer: 95%

Question: And the pest or weed control at 125 g/ha ([2]; post-emergence, Postemergence)?
Answer: 98%

Question: What about the pest or weed control at 8 g/ha [2, 12] of the same molecule?
Answer: 0%

Question: What about the pest or weed control at 16 g/ha ([2]; pre-emergence, Preemergence) of the same molecule?
Answer: 0%

Question: What about the pest or weed control at 31 g/ha ([2]; pre-emergence, Preemergence) of the same molecule?
Answer: 20%

Question: And the pest or weed control at 125 g/ha ([2]; pre-emergence, Preemergence)?
Answer: 100%

Question: What about the pest or weed control at 62 g/ha ([2]; pre-emergence, Preemergence) of the same molecule?
Answer: 50%

Question: And the pest or weed control at 8 g/ha [3, 10]?
Answer: 0%

Question: What about the pest or weed control at 16 g/ha [3, 13] of the same molecule?
Answer: 5%

Question: What about the pest or weed control at 31 g/ha [3, 14] of the same molecule?
Answer: 20%

Question: And the pest or weed control at 62 g/ha [3, 15]?
Answer: 15%

Question: What about the pest or weed control at 125 g/ha [3, 16] of the same molecule?
Answer: 60%

Question: And the pest or weed control at 8 g/ha [3, 12]?
Answer: 0%

Question: What about the pest or weed control at 16 g/ha [3, 17] of the same molecule?
Answer: 0%

Question: What about the pest or weed control at 31 g/ha [3, 18] of the same molecule?
Answer: 0%

Question: And the pest or weed control at 125 g/ha [3, 19]?
Answer: 98%

Question: And the pest or weed control at 62 g/ha ([3]; pre-emergence, Preemergence)?
Answer: 95%

Question: What about the pest or weed control at 8 g/ha ([4]; 8 g ai/ha Preemergence) of the same molecule?
Answer: 0%

Question: What about the pest or weed control at 16 g/ha ([4]; 16 g ai/ha Preemergence) of the same molecule?
Answer: 0%

Question: What about the pest or weed control at 31 g/ha [4] of the same molecule?
Answer: 0%

Question: What about the pest or weed control at 125 g/ha ([4]; 125 g ai/ha Preemergence) of the same molecule?
Answer: 0%

Question: What about the pest or weed control at 62 g/ha [4] of the same molecule?
Answer: 0%

Question: And the pest or weed control at 16 g/ha ([5]; 16 g ai/ha Preemergence)?
Answer: 35%

Question: What about the pest or weed control at 31 g/ha [5] of the same molecule?
Answer: 90%

Question: And the pest or weed control at 125 g/ha ([5]; 125 g ai/ha Preemergence)?
Answer: 98%

Question: And the pest or weed control at 62 g/ha [5]?
Answer: 98%

Question: And the pest or weed control at 8 g/ha ([6]; 8 g ai/ha Preemergence)?
Answer: 0%

Question: What about the pest or weed control at 16 g/ha ([6]; 16 g ai/ha Preemergence) of the same molecule?
Answer: 0%

Question: And the pest or weed control at 31 g/ha [6]?
Answer: 20%

Question: What about the pest or weed control at 62 g/ha [6] of the same molecule?
Answer: 70%

Question: And the pest or weed control at 125 g/ha ([6]; 125 g ai/ha Preemergence)?
Answer: 95%

Question: What about the pest or weed control at 8 g/ha [7, 10] of the same molecule?
Answer: 30%

Question: And the pest or weed control at 16 g/ha [7, 13]?
Answer: 55%

Question: And the pest or weed control at 31 g/ha [7, 14]?
Answer: 50%

Question: And the pest or weed control at 62 g/ha [7, 15]?
Answer: 50%

Question: What about the pest or weed control at 125 g/ha [7, 16] of the same molecule?
Answer: 60%

Question: And the pest or weed control at 8 g/ha [7, 12]?
Answer: 0%

Question: And the pest or weed control at 16 g/ha [7, 17]?
Answer: 0%

Question: What about the pest or weed control at 31 g/ha [7, 18] of the same molecule?
Answer: 0%

Question: And the pest or weed control at 62 g/ha [7, 20]?
Answer: 0%

Question: What about the pest or weed control at 125 g/ha [7, 19] of the same molecule?
Answer: 0%

Question: And the “Plant response rating, Waterhemp_RES2” value ([8]; 8 g ai/ha Postemergence)?
Answer: 70

Question: What about the “Plant response rating, Waterhemp_RES2” value ([8]; 16 g ai/ha Postemergence) of the same molecule?
Answer: 80

Question: What about the “Plant response rating, Waterhemp_RES2” value ([8]; 31 g ai/ha Postemergence) of the same molecule?
Answer: 90

Question: And the “Plant response rating, Waterhemp_RES2” value ([8]; 62 g ai/ha Postemergence)?
Answer: 100

Question: What about the “Plant response rating, Waterhemp_RES2” value ([8]; 125 g ai/ha Postemergence) of the same molecule?
Answer: 100

Question: What about the “Plant response rating, Waterhemp_RES1” value ([9]; 8 g ai/ha Postemergence) of the same molecule?
Answer: 70

Question: What about the “Plant response rating, Waterhemp_RES1” value ([9]; 16 g ai/ha Postemergence) of the same molecule?
Answer: 85

Question: And the “Plant response rating, Waterhemp_RES1” value ([9]; 31 g ai/ha Postemergence)?
Answer: 90

Question: What about the “Plant response rating, Waterhemp_RES1” value ([9]; 62 g ai/ha Postemergence) of the same molecule?
Answer: 95

Question: What about the “Plant response rating, Waterhemp_RES1” value ([9]; 125 g ai/ha Postemergence) of the same molecule?
Answer: 100

Question: What does the source list for Fc1cccc(Oc2ncc(Cl)cn2)c1-c1cc(C(F)F)on1 [Compound 55, 5-chloro-2-[2-[5-(difluoromethyl)-3-isoxazolyl]-3-fluorophenoxy]pyrimidine]?
Answer: pest or weed control at 31 g/ha [1]: 98%; pest or weed control at 62 g/ha [1]: 100%; pest or weed control at 31 g/ha ([2]; post-emergence, Postemergence): 95%; pest or weed control at 62 g/ha [2, 11]: 98%; pest or weed control at 31 g/ha ([2]; pre-emergence, Preemergence): 100%; pest or weed control at 62 g/ha ([2]; pre-emergence, Preemergence): 100%; pest or weed control at 31 g/ha [3, 14]: 40%; pest or weed control at 62 g/ha [3, 15]: 30%; pest or weed control at 31 g/ha [3, 18]: 90%; pest or weed control at 62 g/ha ([3]; pre-emergence, Preemergence): 100%; pest or weed control at 31 g/ha [4]: 30%; pest or weed control at 62 g/ha [4]: 98%; pest or weed control at 31 g/ha [5]: 98%; pest or weed control at 62 g/ha [5]: 98%; pest or weed control at 31 g/ha [6]: 90%; pest or weed control at 62 g/ha [6]: 98%; pest or weed control at 31 g/ha [7, 14]: 25%; pest or weed control at 62 g/ha [7, 15]: 70%; pest or weed control at 31 g/ha [7, 18]: 0%; pest or weed control at 62 g/ha [7, 20]: 10%; Plant response rating, Waterhemp_RES2 ([8]; 31 g ai/ha Postemergence): 100; Plant response rating, Waterhemp_RES2 ([8]; 62 g ai/ha Postemergence): 100; Plant response rating, Waterhemp_RES1 ([9]; 31 g ai/ha Postemergence): 100; Plant response rating, Waterhemp_RES1 ([9]; 62 g ai/ha Postemergence): 100
